Data: patent US20050014810A1, “Use of substituted 2 phenylbenzimidazoles as medicaments” (Boehringer Ingelheim International GmbH, priority 2003, published 2005)
Counter-ions that a name gives are not always drawn.

Row | SMILES | melting point
1 | CC(C)c1ccc2c(c1)CC[C@H]1[C@](C)(Cn3c(-c4cccc(NCC(=O)O)c4)nc4cc(-c5ccccc5)ccc43)CCC[C@]21C | 180 °C
2 | CC(C)c1ccc2c(c1)CC[C@H]1[C@](C)(Cn3c(-c4cccc(OCC(=O)O)c4)nc4cc(-c5ccccc5N)ccc43)CCC[C@]21C | 186 to 190 °C
3 | CC(C)c1ccc2c(c1)CC[C@H]1[C@](C)(Cn3c(-c4cc(OCC(=O)O)ccc4N)nc4cc(-c5ccccc5)ccc43)CCC[C@]21C | > 295 °C (dec.)
4 | CC(C)c1ccc2c(c1)CC[C@H]1[C@](C)(Cn3c(-c4cccc(OCCCC(=O)O)c4)nc4cc(-c5ccccc5)ccc43)CCC[C@]21C | 144 to 151 °C
5 | CC(C)c1ccc2c(c1)CC[C@H]1[C@](C)(Cn3c(-c4cccc(OCC(=O)O)c4)nc4cc(-c5cccc(O)c5)ccc43)CCC[C@]21C | 238 to 242 °C
6 | CC(C)c1ccc2c(c1)CC[C@H]1[C@](C)(Cn3c(-c4cccc(OCC(=O)O)c4)nc4cc(-c5cccc(CN6CCOCC6)c5)ccc43)CCC[C@]21C (as salt: trifluoroacetate) | 133 °C (dec.)
7 | CC(C)c1ccc2c(c1)CC[C@H]1[C@](C)(Cn3c(-c4cccc(N5CCC(C(=O)O)CC5)c4)nc4cc(-c5ccccc5)ccc43)CCC[C@]21C | 166 to 178 °C
8 | COc1cc(OCCCC(=O)O)ccc1-c1nc2cc(-c3cccc(C#N)c3)ccc2n1C[C@]1(C)CCC[C@]2(C)c3ccc(C(C)C)cc3CC[C@@H]12 | 185 °C
9 | CC(C)c1ccc2c(c1)CC[C@H]1[C@](C)(Cn3c(-c4cccc(NC(=O)C(=O)O)c4)nc4cc(-c5ccccc5)ccc43)CCC[C@]21C | 235 °C

Results, then the compound that gave them:

Row | melting point | SMILES
10 | 200 °C | CC(C)c1ccc2c(c1)CC[C@H]1[C@](C)(Cn3c(-c4cccc(NC(=O)Cc5nnn[nH]5)c4)nc4cc(-c5ccccc5)ccc43)CCC[C@]21C
11 | 59 to 72 °C | COc1cc(OCCCC(=O)O)ccc1-c1nc2cc(/C=C/c3ccccc3)ccc2n1C[C@]1(C)CCC[C@]2(C)c3ccc(C(C)C)cc3CC[C@@H]12
12 | 166 °C (dec.) | CC(C)c1ccc2c(c1)CC[C@H]1[C@](C)(Cn3c(-c4cccc(OCC(=O)O)c4)nc4cc(-c5cccc(NS(C)(=O)=O)c5)ccc43)CCC[C@]21C
13 | 175 °C (dec.) | CC(=O)Nc1cccc(-c2ccc3c(c2)nc(-c2cccc(OCC(=O)O)c2)n3C[C@]2(C)CCC[C@]3(C)c4ccc(C(C)C)cc4CC[C@@H]23)c1
14 | 298 to 300 °C | CC(C)c1ccc2c(c1)CC[C@H]1[C@](C)(Cn3c(-c4ccc(CCC(=O)O)cc4)nc4cc(-c5ccccc5)ccc43)CCC[C@]21C
15 | 210 to 215 °C | CC(C)c1ccc2c(c1)CC[C@H]1[C@](C)(Cn3c(-c4cccc(NC(=O)CC(=O)O)c4)nc4cc(-c5ccccc5)ccc43)CCC[C@]21C
16 | 168 to 172 °C | CC(C)c1ccc2c(c1)CC[C@H]1[C@](C)(Cn3c(-c4cc(OCC(=O)O)ccc4NC(=O)C(F)(F)F)nc4cc(-c5ccccc5)ccc43)CCC[C@]21C
17 | 258 to 262 °C | CC(C)c1ccc2c(c1)CC[C@H]1[C@](C)(Cn3c(-c4cccc(OCC(=O)O)c4)nc4cc(-c5cccc([NH+]([O-])O)c5)ccc43)CCC[C@]21C (stereo partly shown)
18 | 127 °C | CC(C)c1ccc2c(c1)CC[C@H]1[C@](C)(Cn3c(-c4cccc(OCC(=O)O)c4)nc4cc(-c5cccc(CN(C)C)c5)ccc43)CCC[C@]21C (as salt: trifluoroacetate)
19 | 179 °C | CC(=O)Nc1ccc(OCC(=O)O)cc1-c1nc2cc(-c3ccccc3)ccc2n1C[C@]1(C)CCC[C@]2(C)c3ccc(C(C)C)cc3CC[C@@H]12
